Where “and” joins values, the source holds several entries; their conditions need not be identical. Equal values may be shown once.
Tested on: lipase
Assay: Lipase/lipolysis assay (EnzChek Lipase Substrate, quenched BODIPY-fatty acid conjugate) on stored human milk; note: test concentration or dose not given here

SMILES: CC(C)[C@@H](C)/C=C/[C@@H](C)[C@H]1CC[C@H]2[C@@H]3CC=C4C[C@@H](O)CC[C@]4(C)[C@H]3CC[C@]12C [Brassicasterol]
- Lipase (RFU): 931.4963 RFU

SMILES: COc1cc(-c2oc3cc(O[C@@H]4O[C@H](CO)[C@@H](O)[C@H](O)[C@H]4O)cc(O)c3c(=O)c2O)ccc1O [Brassicin]
- Lipase (RFU): 1089.017 RFU

SMILES: CC(C)[C@H](C)[C@@H](O)[C@H](O)[C@@H](C)[C@H]1CC[C@H]2[C@@H]3COC(=O)[C@H]4C[C@H](O)[C@H](O)C[C@]4(C)[C@H]3CC[C@]12C [Brassinolide]
- Lipase (RFU): 945.8414 RFU

SMILES: O=C1CC(C(=O)O)c2c1oc(=O)c1cc(O)c(O)c(O)c21 (stereo not shown) [Brevifolincarboxylic acid]
- Lipase (RFU): 760.1752 RFU

SMILES: CCN(Cc1cccc(S(=O)(=O)[O-])c1)c1ccc(C(=C2C=CC(=[N+](CC)Cc3cccc(S(=O)(=O)[O-])c3)C=C2)c2ccccc2S(=O)(=O)[O-])cc1.[Na+].[Na+] [Brilliant Blue FCF]
- Lipase (RFU): 652.1115 RFU

SMILES: CCCCOC(=O)c1ccc(O)cc1 [Butylparaben]
- Lipase (RFU): 948.3985 RFU

SMILES: CCCCC1OC(=O)c2ccccc21 (stereo not shown) [Butylphthalide]
- Lipase (RFU): 989.7778 RFU

SMILES: C[C@@]12CCc3occc3[C@H]1CC[C@@]13C[C@@H](CC[C@H]12)[C@@](O)(CO)C3 [Cafestol]
- Lipase (RFU): 1003.112 RFU

SMILES: O=C([O-])[O-].[Ca+2] [Calcium carbonate]
- Lipase (RFU): 646.797 RFU

SMILES: CC1(C)CC[C@]2(C(=O)O)CC[C@]3(C)C(=CC[C@@H]4[C@@]5(C)CC[C@H](O[C@@H]6O[C@H](C(=O)O)[C@@H](O)[C@H](O)[C@H]6O)C(C)(C)[C@@H]5CC[C@]43C)[C@@H]2C1 [Calenduloside E]
- Lipase (RFU): 1034.138 RFU

SMILES: c1ccc2c(-c3nccs3)c[nH]c2c1 [Camalexin]
- Lipase (RFU): 1018.047 RFU

SMILES: C[C@@H]1O[C@@H](OC[C@H]2O[C@@H](Oc3c(-c4ccc(O)cc4)oc4cc(O)cc(O)c4c3=O)[C@H](O[C@@H]3OC[C@@H](O)[C@H](O)[C@H]3O)[C@@H](O)[C@@H]2O)[C@H](O)[C@H](O)[C@H]1O [Camelliaside B]
- Lipase (RFU): 927.4235 RFU

SMILES: CC(C)[C@H](C)CC[C@@H](C)[C@H]1CC[C@H]2[C@@H]3CC=C4C[C@@H](O)CC[C@]4(C)[C@H]3CC[C@]12C [Campesterol]
- Lipase (RFU): 912.1206 RFU

SMILES: CCCCCC(=O)O [Caproic Acid]
- Lipase (RFU): 905.3416 RFU

SMILES: COc1cc(COC(=O)CCCC/C=C/C(C)C)ccc1O [Capsiate]
- Lipase (RFU): 1078.823 RFU

SMILES: NC(=O)OP(=O)(O)O [Carbamyl Phosphate]
- Lipase (RFU): 699.376 RFU

SMILES: Cc1ccc(C(C)C)cc1O [Carvacrol]
- Lipase (RFU): 695.2525 RFU and 1199.593 RFU

SMILES: C=C1CC[C@H]2O[C@]2(C)CC[C@@H]2[C@@H]1CC2(C)C [Caryophyllene oxide]
- Lipase (RFU): 891.7497 RFU and 923.1149 RFU

SMILES: COc1cc(O[C@@H]2O[C@H](CO[C@@H]3O[C@H](CO)[C@@H](O)[C@H](O)[C@H]3O)[C@@H](O)[C@H](O)[C@H]2O)c2c(O)c3c(=O)oc(C)cc3cc2c1 [Cassiaside C]
- Lipase (RFU): 979.0974 RFU

SMILES: COn1cc(CC#N)c2ccccc21 [Caulilexin C]
- Lipase (RFU): 998.4752 RFU

SMILES: CC(=O)O[C@]1(C)CC[C@@]23C[C@@H]1C(C)(C)[C@@H]2CC[C@H]3C [Cedryl acetate]
- Lipase (RFU): 1088.309 RFU

SMILES: O=C1C[C@@H](c2ccc(O[C@@H]3O[C@H](CO)[C@@H](O)[C@H](O)[C@H]3O)cc2)Oc2cc(O)cc(O)c21 [Choerospondin]
- Lipase (RFU): 1121.626 RFU

SMILES: CC(C)CCC[C@@H](C)[C@H]1CC[C@H]2[C@@H]3CCC4=CC(=O)CC[C@]4(C)[C@H]3CC[C@]12C [Cholestenone]
- Lipase (RFU): 787.5717 RFU

SMILES: CCCCCCCCCCCCCCCCCCCCCC(=O)O[C@H]1CC[C@@]2(C)C(=CC[C@H]3[C@@H]4CC[C@H]([C@H](C)CCCC(C)C)[C@@]4(C)CC[C@@H]32)C1 [Cholesteryl behenate]
- Lipase (RFU): 935.1979 RFU

SMILES: CCCCC/C=C\C/C=C\CCCCCCCC(=O)O[C@H]1CC[C@@]2(C)C(=CC[C@H]3[C@@H]4CC[C@H]([C@H](C)CCCC(C)C)[C@@]4(C)CC[C@@H]32)C1 [Cholesteryl linoleate]
- Lipase (RFU): 922.3562 RFU

SMILES: CCCCCCCC/C=C\CCCCCCCC(=O)O[C@H]1CC[C@@]2(C)C(=CC[C@H]3[C@@H]4CC[C@H]([C@H](C)CCCC(C)C)[C@@]4(C)CC[C@@H]32)C1 [Cholesteryl oleate]
- Lipase (RFU): 988.5488 RFU

SMILES: C[C@H](CCC(=O)O)[C@H]1CC[C@H]2[C@@H]3[C@H](O)C[C@@H]4C[C@H](O)CC[C@]4(C)[C@H]3C[C@H](O)[C@]12C [Cholic acid (sodium)]
- Lipase (RFU): 828.0633 RFU and 816.2579 RFU

SMILES: C[C@H](CCC(=O)O)[C@H]1CC[C@H]2[C@@H]3[C@H](O)C[C@@H]4C[C@H](O)CC[C@]4(C)[C@H]3C[C@H](O)[C@]12C [Cholic acid]
- Lipase (RFU): 761.6522 RFU and 886.7213 RFU

SMILES: C[N+](C)(C)CCO.O=C([O-])C(O)C(O)C(=O)O (stereo not shown) [Choline (bitartrate)]
- Lipase (RFU): 1263.191 RFU and 1046.984 RFU

SMILES: C=C(O[C@@H]1C=C(C(=O)O)C=C[C@H]1O)C(=O)O [Chorismic Acid]
- Lipase (RFU): 935.6375 RFU

SMILES: Cc1cc(O)c2c(c1)C(=O)c1cccc(O[C@@H]3O[C@H](CO)[C@@H](O)[C@H](O)[C@H]3O)c1C2=O [Chrysophanol 8-O-glucoside]
- Lipase (RFU): 988.4419 RFU

SMILES: COc1cc(-c2oc3cc(OC)c(OC)c(O)c3c(=O)c2OC)ccc1O [Chrysosplenetin]
- Lipase (RFU): 1129.025 RFU

SMILES: O=c1ccc2cc(O)c(O[C@@H]3O[C@H](CO)[C@@H](O)[C@H](O)[C@H]3O)cc2o1 [Cichoriin]
- Lipase (RFU): 714.076 RFU

SMILES: Oc1cc(O)c2c(c1)O[C@@]1(c3ccc(O)c(O)c3)Oc3cc(O)c4c(c3[C@@H]2[C@H]1O)O[C@H](c1ccc(O)c(O)c1)[C@H](O)[C@H]4c1c(O)cc(O)c2c1O[C@H](c1ccc(O)c(O)c1)[C@H](O)C2 [Cinnamtannin B-1]
- Lipase (RFU): 1061.374 RFU

SMILES: C[N+](C)(C)CCOP(=O)([O-])OP(=O)([O-])OC[C@H]1O[C@@H](n2ccc(N)nc2=O)[C@H](O)[C@@H]1O.[Na+] [Citicoline (sodium)]
- Lipase (RFU): 965.9573 RFU

SMILES: Nc1ncnc(N[C@@H]2O[C@H](CO)[C@@H](O)[C@H]2O)c1[N+](=O)[O-] [Clitocine]
- Lipase (RFU): 1144.133 RFU

SMILES: COC1=C(OC)C(=O)C(C/C=C(\C)CC/C=C(\C)CC/C=C(\C)CC/C=C(\C)CC/C=C(\C)CC/C=C(\C)CC/C=C(\C)CC/C=C(\C)CCC=C(C)C)=C(C)C1=O [Coenzyme Q9]
- Lipase (RFU): 1106.833 RFU

SMILES: CC(O)CN (stereo not shown) [Compound 1-Aminopropan-2-ol, 1-Aminopropan-2-ol]
- Lipase (RFU): 1021.874 RFU and 806.2549 RFU

SMILES: OC[C@H]1NC[C@H](O)[C@@H](O)[C@@H]1O [Compound 1-Deoxynojirimycin]
- Lipase (RFU): 1029.468 RFU

SMILES: CCCCCCCCCCCCCCCCCO [Compound 1-Heptadecanol, 1-Heptadecanol]
- Lipase (RFU): 803.2986 RFU

SMILES: CCCCCCO [Compound 1-Hexanol]
- Lipase (RFU): 1054.453 RFU and 1051.532 RFU

SMILES: OC[C@H]1O[C@@](CO)(OC[C@@]2(O[C@H]3O[C@H](CO)[C@@H](O)[C@H](O)[C@H]3O)O[C@H](CO)[C@@H](O)[C@@H]2O)[C@@H](O)[C@@H]1O [Compound 1-Kestose]
- Lipase (RFU): 1115.168 RFU

SMILES: CCCCCCCCO [Compound 1-Octanol]
- Lipase (RFU): 882.5398 RFU

SMILES: O=c1[nH]c2ccccc2o1 [Compound 2-Benzoxazolinone, 2-Benzoxazolinone]
- Lipase (RFU): 985.9488 RFU

SMILES: C[C@]12CC[C@@H]3c4cc(O)c(O)cc4CC[C@H]3[C@@H]1CC[C@@H]2O [Compound 2-Hydroxyestradiol]
- Lipase (RFU): 1214.209 RFU

SMILES: COc1cc2c(cc1O)CC[C@@H]1[C@@H]2CC[C@]2(C)[C@@H](O)CC[C@@H]12 [Compound 2-Methoxyestradiol]
- Lipase (RFU): 884.0231 RFU

SMILES: COc1cc2c(cc1O)CC[C@@H]1[C@@H]2CC[C@]2(C)C(=O)CC[C@@H]12 [Compound 2-Methoxyestrone]
- Lipase (RFU): 970.0321 RFU

SMILES: Cc1nc2ccccc2o1 [Compound 2-Methylbenzoxazole, 2-Methylbenzoxazole]
- Lipase (RFU): 887.776 RFU

SMILES: COc1nccc(N)n1 [Compound 2-O-Methylcytosine]
- Lipase (RFU): 1109.623 RFU

SMILES: NC(=O)Cc1ccccc1 [Compound 2-Phenylacetamide, 2-Phenylacetamide]
- Lipase (RFU): 955.8815 RFU

SMILES: CCCCCCCCCC(C)=O [Compound 2-Undecanone, 2-Undecanone]
- Lipase (RFU): 1119.854 RFU

SMILES: N[C@@H](Cc1ccc(O)c(Cl)c1)C(=O)O [Compound 3-Chloro-L-tyrosine, 3-Chloro-L-tyrosine]
- Lipase (RFU): 1117.619 RFU

SMILES: Nc1c(O)cccc1C(=O)CC(N)C(=O)O (stereo not shown) [Compound 3-Hydroxykynurenine]
- Lipase (RFU): 1303.264 RFU

SMILES: COc1c(O)cc2oc3cc4c(c(O)c3c(=O)c2c1CC=C(C)C)CCC(C)(C)O4 [Compound 3-Isomangostin]
- Lipase (RFU): 1135.455 RFU

SMILES: COc1cc(CCN)ccc1O [Compound 3-Methoxytyramine, 3-Methoxytyramine]
- Lipase (RFU): 821.2607 RFU

SMILES: COc1c(-c2ccccc2)oc2cc(O)cc(O)c2c1=O [Compound 3-O-Methylgalangin]
- Lipase (RFU): 819.4334 RFU

SMILES: O=c1cc(O)c2ccccc2o1 [Compound 4-Hydroxycoumarin, 4-Hydroxycoumarin]
- Lipase (RFU): 929.4704 RFU

SMILES: COc1ccc(C(=O)/C=C/c2ccc(O)cc2)c(O)c1CC=C(C)C [Compound 4-Hydroxyderricin]
- Lipase (RFU): 842.4877 RFU

SMILES: C[C@]12CC[C@@H]3c4ccc(O)c(O)c4CC[C@H]3[C@@H]1CCC2=O [Compound 4-Hydroxyestrone]
- Lipase (RFU): 1068.255 RFU

SMILES: CCCCCC(O)/C=C/C=O (stereo not shown) [Compound 4-Hydroxynonenal, 4-Hydroxynonenal]
- Lipase (RFU): 827.4103 RFU

SMILES: COc1ccc(C)cc1 [Compound 4-Methylanisole, 4-Methylanisole]
- Lipase (RFU): 864.3612 RFU and 916.5396 RFU

SMILES: CC(C)(C)CC(C)(C)c1ccc(O)cc1 [Compound 4-tert-Octylphenol, 4-tert-Octylphenol]
- Lipase (RFU): 868.4892 RFU

SMILES: COc1ccc(-c2cc(=O)c3c(O)c(OC)c(OC)c(OC)c3o2)cc1OC [Compound 5-O-Demethylnobiletin]
- Lipase (RFU): 860.071 RFU

SMILES: C[C@H](O)[C@H](O)c1cnc2nc(N)[nH]c(=O)c2n1 [Compound 6-Biopterin]
- Lipase (RFU): 1286.983 RFU

Source: patent US12507703B2, “Methods, devices and compositions for preserving human milk” (The Trustees of Princeton University, priority 2023, dated 2025)
